Assay results published in publication PMC7002685, “Inhibition of vascular calcification by inositol phosphates derivatized with ethylene glycol oligomers” (Nature Communications, 2020).

Columns and labels:
Glutamate, NMDA, Agonism = test: Off-target 232810; type: binding, Rat; conditions: 10 µM
Description: (§1) The potential off-target activity of 10 µM (OEG2)2-IP4 was assessed against a panel of 87 enzymes, receptors, or ion channels that are used in standard safety pharmacology screens.
(§2) 3.2. Off-target screening assay
(§3) The experiments were conducted by a contract research organization (Eurofins Panlabs Discovery Services Taiwan, Ltd.) and details on the respective assays can be retrieved via the catalog number provided in Supplementary Table 11 from the company’s webpage
(§4) (https://www.eurofinsdiscoveryservices.com/). […]
(§5) At sacrifice the left tibia of animals of the rat model with dietary adenine/high-phosphate-induced uremia and VC was collected, fixed with 70% v/v EtOH and embedded in methyl methacrylate. The trabecular bone compartment is known to be the most metabolic active i.e. actively re-structured bone compartment in CKD. Therefore, histomorphometric and micro-computed tomography (µCT) analysis of bone was performed on the trabecular compartment. Tibial sections were Goldner-stained for histomorphometric analysis of the proximal metaphysis using the AxioVision Release 4.5 software, as […]
(§6) described previously5. […]

PPARγ = target: T1, PPARγ (Homo sapiens, UniProt P37231); test: Off-target 267500; type: binding
T1 construct: purchased Eurofins Panlabs Discovery Services Taiwan, Ltd
Description: as §1, §2, §3, §4, §5, §6

[1] = target: T2, Serotonin (5-Hydroxytryptamine) 5-HT1A (Homo sapiens, UniProt P08908); test: Off-target 271110; type: binding
T2 construct: purchased Eurofins Panlabs Discovery Services Taiwan, Ltd
Description: as §1, §2
The experiments were conducted by a contract research organization (Eurofins Panlabs Discovery
Services Taiwan, Ltd.) and details on the respective assays can be retrieved via the catalog number
provided in Supplementary Table 11 from the company’s webpage
as §4

T2 sequence (P08908 whole entry): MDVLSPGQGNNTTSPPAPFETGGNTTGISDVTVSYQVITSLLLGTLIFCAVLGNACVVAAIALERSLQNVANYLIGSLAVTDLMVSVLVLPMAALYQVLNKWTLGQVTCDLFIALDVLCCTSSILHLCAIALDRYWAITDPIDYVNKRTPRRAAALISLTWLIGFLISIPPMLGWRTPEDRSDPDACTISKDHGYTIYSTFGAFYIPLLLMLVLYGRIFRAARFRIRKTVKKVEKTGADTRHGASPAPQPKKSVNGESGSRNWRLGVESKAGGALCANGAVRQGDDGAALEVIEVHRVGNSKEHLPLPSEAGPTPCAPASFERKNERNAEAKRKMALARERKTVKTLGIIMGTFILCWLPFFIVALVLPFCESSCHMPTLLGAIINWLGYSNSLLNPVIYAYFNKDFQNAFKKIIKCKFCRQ
T1 sequence (P37231 whole entry): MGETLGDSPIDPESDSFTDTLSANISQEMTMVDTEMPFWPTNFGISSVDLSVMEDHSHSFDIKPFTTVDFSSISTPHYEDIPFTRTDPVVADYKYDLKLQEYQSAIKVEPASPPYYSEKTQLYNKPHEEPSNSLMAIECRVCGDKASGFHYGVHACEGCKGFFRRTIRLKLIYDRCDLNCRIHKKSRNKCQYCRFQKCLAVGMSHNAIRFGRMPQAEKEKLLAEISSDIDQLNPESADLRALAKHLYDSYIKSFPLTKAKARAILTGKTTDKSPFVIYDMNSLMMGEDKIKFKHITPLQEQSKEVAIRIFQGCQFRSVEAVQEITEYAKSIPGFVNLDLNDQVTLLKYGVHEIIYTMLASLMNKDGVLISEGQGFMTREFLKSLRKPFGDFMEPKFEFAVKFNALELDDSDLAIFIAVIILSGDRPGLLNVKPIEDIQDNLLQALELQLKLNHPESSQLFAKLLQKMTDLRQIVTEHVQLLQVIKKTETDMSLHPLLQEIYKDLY

## COCCOCCO[C@@H]1[C@@H](OP(=O)(O)O)[C@H](OCCOCCOC)[C@@H](OP(=O)(O)O)[C@@H](OP(=O)(O)O)[C@H]1OP(=O)(O)O [(OEG2)2-IP4, 4,6-Di-O-(methoxy-diethyleneglycol)-myo-inositol-1,2,3,5-tetrakis(phosphate)]
Glutamate, NMDA, Agonism
  % Inhibition: 7%
PPARγ
  inhibition at 10 µM: 2%
[1]
  inhibition at 10 µM: 11%
